Experimental findings from patent US9265773B2, “Tetracyclic heterocycle compounds and methods of use thereof for the treatment of viral diseases” (priority 2011, dated 2016) are described below.

In one experiment the test system is HCV replicon genotype 1a. The experiment in a line: microbe, parasite or virus in culture. The format is cell-based. The settings on record: genotype 1a replicon cells, incubated 96 hours, NS3/4A ELISA readout.
The next experiment deals with HCV replicon genotype 1b. The experiment is described as follows: microbe, parasite or virus in culture. The format is cell-based. The conditions noted are these: genotype 1b replicon cells, incubated 96 hours, NS3/4A ELISA readout.

With `CNC(=O)c1c(-c2ccc(F)cc2)oc2cc(N(CCC3(O)CC3)S(C)(=O)=O)c(-c3ccc4c(n3)-c3cc5c(F)cccc5n3CO4)cc12` [Compound 204], the IC50 was 8.1 nM in the experiment on HCV replicon genotype 1a (Hepatitis C virus, 96 h) and 19 nM in the experiment with HCV replicon genotype 1b (Hepatitis C virus, 96 h).

Turning to `CNC(=O)c1c(-c2ccc(F)cc2)oc2cc(N3CCN(C)C3=O)c(-c3ccc4c(n3)-c3cc5c(F)cccc5n3CO4)cc12` [Compound 178, 5-(11-fluoro-6H-pyrido[2′,3′:5,6][1,3]oxazino[3,4-a]indol-2-yl)-2-(4-fluorophenyl)-N-methyl-6-(3-methyl-2-oxoimidazolidin-1-yl)benzofuran-3-carboxamide], the 50% inhibitory concentration (IC50) with HCV replicon genotype 1a (Hepatitis C virus, 96 h) came to 133 nM; with HCV replicon genotype 1b (Hepatitis C virus, 96 h) it was 28 nM.

Consider `CNC(=O)c1c(-c2ccc(F)cc2)oc2cc(N(CCF)S(C)(=O)=O)c(-c3ccc4c(n3)-c3cc5c(C#N)cccc5n3CO4)cc12` [Compound 191], for which the IC50 was 1.7 nM in the experiment on HCV replicon genotype 1a (Hepatitis C virus, 96 h) and 2.2 nM in the experiment with HCV replicon genotype 1b (Hepatitis C virus, 96 h).

Take `CNC(=O)c1c(-c2ccc(F)cc2)oc2cc(N(C)S(C)(=O)=O)c(-c3ccc4oc(=O)n5c6cccc(F)c6cc5c4n3)cc12` [Compound 54, 5-(11-fluoro-6-oxo-6H-pyrido[2′,3′:5,6][1,3]oxazino[3,4-a]indol-2-yl)-2-(4-fluorophenyl)-N-methyl-6-(N-methylmethylsulfonamido)benzofuran-3-carboxamide]: the 50% inhibitory concentration (IC50) in the experiment with HCV replicon genotype 1a (Hepatitis C virus, 96 h) turned out to be 69 nM; in the experiment on HCV replicon genotype 1b (Hepatitis C virus, 96 h), 39 nM.

As for `CNC(=O)c1c(-c2ccc(F)cc2)oc2cc(N(C)S(C)(=O)=O)c(-c3ncc4c(n3)-c3cc5c(C#N)cccc5n3CO4)cc12` [Compound 26], the IC50 in the experiment with HCV replicon genotype 1a (Hepatitis C virus, 96 h) is 1.1 nM; in the experiment with HCV replicon genotype 1b (Hepatitis C virus, 96 h), 1.2 nM.

With `CNC(=O)c1c(-c2ccc(F)cc2)oc2cc(N(C)S(C)(=O)=O)c(-c3ccc4c(c3)-c3cc5ccccc5n3CC(NCCN3CCCC3)CO4)cc12` (stereo not drawn) [Compound 84], the concentration for half-maximal inhibition (IC50) with HCV replicon genotype 1a (Hepatitis C virus, 96 h) amounted to 26 nM; in the experiment on HCV replicon genotype 1b (Hepatitis C virus, 96 h) it was 16 nM.

For `CNC(=O)c1c(-c2ccc(F)cc2)oc2cc(N3CCCC3=O)c(-c3ccc4c(n3)-c3cc5cc(F)ccc5n3CO4)cc12` [Compound 169], the IC50 in the experiment on HCV replicon genotype 1a (Hepatitis C virus, 96 h) is 14 nM; in the experiment with HCV replicon genotype 1b (Hepatitis C virus, 96 h), 5 nM.

As for `CNC(=O)c1c(-c2ccc(F)cc2)oc2cc(-n3cn[nH]c3=O)c(-c3ccc4c(n3)-c3cc5c(F)cccc5n3CO4)cc12` [Compound 164], the concentration for half-maximal inhibition (IC50) in the experiment on HCV replicon genotype 1a (Hepatitis C virus, 96 h) came to 1.7 nM; in the experiment with HCV replicon genotype 1b (Hepatitis C virus, 96 h) it was 1 nM.

For `CNC(=O)c1c(-c2ccc(F)cc2)oc2cc(N(C3COC3)S(C)(=O)=O)c(-c3ccc4c(n3)-c3cc5c(F)cccc5n3CO4)cc12` [Compound 199], the half-maximal inhibitory concentration (IC50) in the experiment on HCV replicon genotype 1a (Hepatitis C virus, 96 h) was 4.7 nM; in the experiment with HCV replicon genotype 1b (Hepatitis C virus, 96 h), 5.9 nM.

With `CNC(=O)c1c(-c2ccc(F)cc2)oc2cc(N(C)S(C)(=O)=O)c(-c3ccc4c(n3)-c3cc5c(F)cccc5n3C(C(OC)OC)O4)cc12` (stereo not drawn) [Compound 93], the IC50 was found to be 4.4 nM in the experiment with HCV replicon genotype 1a (Hepatitis C virus, 96 h) and 6 nM in the experiment on HCV replicon genotype 1b (Hepatitis C virus, 96 h).

Regarding `CNC(=O)c1c(-c2ccc(F)cc2)oc2cc(N(C)S(C)(=O)=O)c(-c3ccc4c(n3)-c3cc5c(F)cccc5n3C3(COC3)O4)cc12` [Compound 97], the IC50 with HCV replicon genotype 1a (Hepatitis C virus, 96 h) turned out to be 2.9 nM; with HCV replicon genotype 1b (Hepatitis C virus, 96 h), 4.4 nM.

For `CNC(=O)c1c(-c2ccc(F)cc2)oc2cc(N(C)S(C)(=O)=O)c(-c3ccc4c(n3)-c3cc5c(F)cccc5n3C(C)(CO)O4)cc12` (stereo not drawn) [Compound 91], the concentration for half-maximal inhibition (IC50) turned out to be 3.3 nM in the experiment with HCV replicon genotype 1a (Hepatitis C virus, 96 h) and 7.4 nM in the experiment on HCV replicon genotype 1b (Hepatitis C virus, 96 h).

For the compound `CNC(=O)c1c(-c2ccc(F)cc2)oc2cc(N(C)S(C)(=O)=O)c(-c3ccc4c(n3)-c3cc5c(F)c(F)ccc5n3CO4)cc12` [Compound 28], the half-maximal inhibitory concentration (IC50) with HCV replicon genotype 1a (Hepatitis C virus, 96 h) worked out at 2.1 nM; in the experiment with HCV replicon genotype 1b (Hepatitis C virus, 96 h), 4.5 nM.

In the case of `CC(=O)N(C)C(=O)c1c(-c2ccc(F)cc2)oc2cc(N(C)S(C)(=O)=O)c(-c3ccc4c(n3)-c3cc5c(F)cccc5n3CO4)cc12` [Compound 210, N-acetyl-5-(11-fluoro-6H-pyrido[2′,3′:5,6][1,3]oxazino[3,4-a]indol-2-yl)-2-(4-fluorophenyl)-N-methyl-6-(N-methylmethylsulfonamido)benzofuran-3-carboxamide], the IC50 in the experiment on HCV replicon genotype 1a (Hepatitis C virus, 96 h) was 2.1 nM; in the experiment with HCV replicon genotype 1b (Hepatitis C virus, 96 h) it was 4.2 nM.

As for `CNC(=O)c1c(-c2ccc(F)cc2)oc2cc(N(C)S(C)(=O)=O)c(-c3ccc4c(n3)-c3cc5c(F)cccc5n3C(CO)O4)cc12` (stereo not drawn) [Compound 88, 5-(11-fluoro-6-(hydroxymethyl)-6H-pyrido[2′,3′:5,6][1,3]oxazino[3,4-a]indol-2-yl)-2-(4-fluorophenyl)-N-methyl-6-(N-methylmethylsulfonamido)benzofuran-3-carboxamide], the results for the IC50 in the experiment on HCV replicon genotype 1a and in the experiment with HCV replicon genotype 1b were 2.7 nM and 2.6 nM, respectively.

Take `CNC(=O)c1c(-c2ccc(F)cc2)oc2cc(N(C)S(C)(=O)=O)c(-c3ccc4c(n3)-c3cc5cc(C#N)cc(F)c5n3CO4)cc12` [Compound 31]: the 50% inhibitory concentration (IC50) in the experiment with HCV replicon genotype 1a (Hepatitis C virus, 96 h) was determined as 7.2 nM; in the experiment on HCV replicon genotype 1b (Hepatitis C virus, 96 h), 6.5 nM.

Turning to `CNC(=O)c1c(-c2ccc(F)cc2)oc2cc(N(C)S(C)(=O)=O)c(-c3ccc4c(n3)-c3cc5cccc(C#N)c5n3CO4)cc12` [Compound 18], the concentration for half-maximal inhibition (IC50) in the experiment with HCV replicon genotype 1a (Hepatitis C virus, 96 h) stood at 9.2 nM; in the experiment on HCV replicon genotype 1b (Hepatitis C virus, 96 h), 5.4 nM.

`CNC(=O)c1c(-c2ccc(F)cc2)oc2cc(N(C)S(C)(=O)=O)c(-c3ccc4c(c3)-c3cc5ccccc5n3CCO4)cc12` [Compound 42, 5-(6,7-dihydrobenzo[6,7][1,4]oxazepino[4,5-a]indol-2-yl)-2-(4-fluorophenyl)-N-methyl-6-(N-methylmethylsulfonamido)benzofuran-3-carboxamide]: the IC50 in the experiment on HCV replicon genotype 1a (Hepatitis C virus, 96 h) was determined as 3.1 nM; in the experiment with HCV replicon genotype 1b (Hepatitis C virus, 96 h) it was 4.5 nM.

For `CNC(=O)c1c(-c2ccc(F)cc2)oc2cc(N(C)S(C)(=O)=O)c(-c3cnc4c(n3)-c3cc5c(C#N)cccc5n3CO4)cc12` [Compound 33], the IC50 in the experiment on HCV replicon genotype 1a (Hepatitis C virus, 96 h) came out at 0.9 nM; in the experiment on HCV replicon genotype 1b (Hepatitis C virus, 96 h) it was 1.2 nM.

On to `CNC(=O)c1c(-c2ccc(F)cc2)oc2cc(N(C)S(C)(=O)=O)c(-c3ncc4c(n3)-c3cc5ccccc5n3CCCO4)cc12` [Compound 39], for which the IC50 turned out to be 2.4 nM with HCV replicon genotype 1a (Hepatitis C virus, 96 h) and 1.8 nM with HCV replicon genotype 1b (Hepatitis C virus, 96 h).

As for `CNC(=O)c1c(-c2ccc(F)cc2)oc2cc(N(C)S(C)(=O)=O)c(-c3cc4c(cn3)OCn3c-4cc4ccccc43)cc12` [Compound 11], the half-inhibitory concentration (IC50) in the experiment with HCV replicon genotype 1a (Hepatitis C virus, 96 h) came out at 2.1 nM; in the experiment on HCV replicon genotype 1b (Hepatitis C virus, 96 h), 1.8 nM.

As for `CNC(=O)c1c(-c2ccc(F)cc2)oc2cc(N(C)S(C)(=O)=O)c(-c3ccc4c(n3)-c3cc5c(F)cccc5n3C(CNC(C)=O)O4)cc12` (stereo not drawn) [Compound 130], the IC50 in the experiment on HCV replicon genotype 1a and with HCV replicon genotype 1b was 3 nM in each case.

In the case of `CNC(=O)c1c(-c2ccc(F)cc2)oc2cc(N(C)S(C)(=O)=O)c(-c3ccc4c(n3)-c3cc5c(C#N)cccc5n3CO4)cc12` [Compound 12], the 50% inhibitory concentration (IC50) is 1.6 nM in the experiment with HCV replicon genotype 1a (Hepatitis C virus, 96 h) and 1.7 nM in the experiment with HCV replicon genotype 1b (Hepatitis C virus, 96 h).

As to `CNC(=O)c1c(-c2ccc(F)cc2)oc2cc(N(C)S(C)(=O)=O)c(-c3ccc4c(n3)-c3cc5c(F)cccc5n3C(CNC(C)=O)O4)cc12` (stereo not drawn) [Compound 129], the figures for the IC50 with HCV replicon genotype 1a and with HCV replicon genotype 1b were 1.7 nM and 2.1 nM, respectively.

As to `CNC(=O)c1c(-c2ccc(F)cc2)oc2cc(N(C)S(C)(=O)=O)c(-c3ccc4c(n3)-c3cc5ccc(C#N)cc5n3CO4)cc12` [Compound 22], the IC50 was determined as 3.5 nM in the experiment with HCV replicon genotype 1a (Hepatitis C virus, 96 h) and 1.9 nM in the experiment on HCV replicon genotype 1b (Hepatitis C virus, 96 h).

In the case of `CNC(=O)c1c(-c2ccc(F)cc2)oc2cc(N(CCCF)S(C)(=O)=O)c(-c3ncc4c(n3)-c3cc5c(F)cccc5n3CO4)cc12` [Compound 195], the half-maximal inhibitory concentration (IC50) in the experiment with HCV replicon genotype 1a (Hepatitis C virus, 96 h) came out at 2.1 nM; in the experiment with HCV replicon genotype 1b (Hepatitis C virus, 96 h) it was 4.1 nM.

Regarding `CCNC(=O)c1c(-c2ccc(F)cc2)oc2cc(N(C)S(C)(=O)=O)c(-c3ccc4c(n3)-c3cc5c(F)cccc5n3CO4)cc12` [Compound 156], the IC50 with HCV replicon genotype 1a (Hepatitis C virus, 96 h) was determined as 2.3 nM; in the experiment on HCV replicon genotype 1b (Hepatitis C virus, 96 h), 2.9 nM.
